The experiment relates to HeLa cells. Briefly: Internalization of Dox loaded nanoparticles (flow cytometry). It is filed as cell-based. The note with it: 8 h of exposure. For orientation: A flow cytometer gives signals particle by particle.

The results in this text go back to patent US12133855B2, “Lipid-like nanocomplexes and uses thereof” (Trustees of Tufts College, priority 2018, dated 2024).

Protocol: After 24 h of incubation at 37° C., 5% CO2, Dox, CPT or Oxa loaded nanoparticles were added to the cells and incubated for 8 h followed by media change. The cells were then incubated for another 40 h before cell viability analysis.
Doxorubicin hydrochloride (Dox) (water soluble), and camptothecin (CPT) and oxaliplatin (Oxa) (water insoluble) were encapsulated into LNPs (see experimental section) and tested against HeLa cells. […] Then the internalization of Dox loaded 75-OCholB LNP (Dox/75-OCholB) was studied after 8 h of exposure using flow cytometry.

With `COc1cccc2c1C(=O)c1c(O)c3c(c(O)c1C2=O)C[C@@](O)(C(=O)CO)C[C@@H]3O[C@H]1C[C@H](N)[C@H](O)[C@H](C)O1.Cl` [free Dox, Doxorubicin hydrochloride], the “mean fluorescence intensity vs untreated control cells (internalization)” value is reported as “could be readily internalized”.
